Assay results published in article PMC12088000, “Design, synthesis and in silico molecular modelling studies of 2-Hydrazineyl-2-oxoethyl-4-(1H-pyrrol-1-yb) benzoate derivatives: a potent dual DHFR and ENR-reductase inhibitors with antitubercular, antibacterial and cytotoxic potential” (PLOS One, 2025).
Converted amounts (≈) assume the structure as drawn.

How the values were obtained:
E. coli ATCC 25922 = assay: Antibacterial activity, broth microdilution (E. coli); conditions: for MIC: Escherichia coli, ATCC25922, read-out: E. coli ATCC 25922 (Gram –ve) MIC, broth microdilution; for E. coli ATCC 25922 (Gram –ve) MIC: broth microdilution
Method: (§1) All twenty-eight molecules were evaluated for in vitro antimicrobial activities that were assessed against Gram +ve and Gram -ve strains.
(§2) The antibacterial inhibitory effects of all compounds were assessed using the broth microdilution method, with ciprofloxacin serving as the reference medication.

S. aureus ATCC 29213 = assay: Antibacterial activity, broth microdilution (S. aureus); conditions: Staphylococcus aureus, ATCC29213, read-out: S. aureus ATCC 29213 (Gram +ve) MIC
Method: as §1, §2

[1] = test system: human lung cancer cell line A549; assay: MTT-based cytotoxicity; format: cell-based; conditions: MTT assay; for IC50: Homo sapiens, A549
Method: The cytotoxic effects of seventeen selected molecules were assessed against the A549 human lung adenocarcinoma cell line using the MTT assay. Cisplatin served as the reference drug for comparison. Lower IC50 values indicate higher cytotoxicity.
The cytotoxic activity (IC50) of selected compounds against A549 (lung adenocarcinoma) MV cell-lines was evaluated by performing cellular conversion of MTT [3-(4,5-dimethylthiazo-2-yl)-2,5-diphenyl-tetrazolium bromide] into a formazan product. This evaluation was conducted up to a concentration of 50 mg/mL using the Promega Cell Titre 96 non-radioactive cell proliferation assay, with cisplatin serving as the positive control. Cytotoxicity is commonly quantified by determining the IC50 value, which represents the quantity of a substance that reduces the optical density of treated cells by 50% compared to untreated cells, as measured by the MTT experiment. The results are presented as IC50 values (mean ± standard error of the mean (SEM) obtained from three separate and independent measurements.

M. tuberculosis H37Rv = assay: Antitubercular activity, Microplate Alamar Blue test (MABA); format: cell-based, Mycobacterium tuberculosis; conditions: n = 3; for MIC: Mycobacterium tuberculosis, H37RV
[2] = target: InhA enzyme from M. tuberculosis (Mycobacterium tuberculosis, UniProt P9WGR1); assay: InhA inhibition assay; format: biochemical; conditions: for inhibition at 50 µM: read-out: % InhA Inhibition at 50 µM
Sequence of InhA enzyme from M. tuberculosis (P9WGR1 whole entry, looked up): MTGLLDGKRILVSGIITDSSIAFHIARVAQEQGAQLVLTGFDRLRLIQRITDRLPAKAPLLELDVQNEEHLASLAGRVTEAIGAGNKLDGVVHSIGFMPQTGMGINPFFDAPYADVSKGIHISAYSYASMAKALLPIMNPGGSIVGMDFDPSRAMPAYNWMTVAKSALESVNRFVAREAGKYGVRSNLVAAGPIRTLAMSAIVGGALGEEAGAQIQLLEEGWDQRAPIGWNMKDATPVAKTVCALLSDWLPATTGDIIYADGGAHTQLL

MtDHFR = MtDHFR (Mycobacterium tuberculosis, UniProt P9WNX1); assay: biochemical; format: biochemical
Sequence of MtDHFR (P9WNX1 whole entry): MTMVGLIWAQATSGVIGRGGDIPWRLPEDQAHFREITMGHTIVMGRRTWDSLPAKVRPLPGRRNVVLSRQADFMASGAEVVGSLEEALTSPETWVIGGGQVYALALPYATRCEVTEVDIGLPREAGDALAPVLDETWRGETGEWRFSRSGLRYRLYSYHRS

| SMILES | MIC (E. coli ATCC 25922) | MIC (S. aureus ATCC 29213) | IC50 human lung cancer cell line A549 [1] | MIC (M. tuberculosis H37Rv) | inhibition at 50 µM [2] | IC50 (MtDHFR) | MtDHFR inhibition, in words, compared with trimethoprim (MtDHFR) | IC50 [1] | M. tuberculosis H37Rv MIC values (M. tuberculosis H37Rv) | E. coli ATCC 25922 (Gram –ve) MIC (E. coli ATCC 25922) | % InhA Inhibition at 50 µM [2] |
| --- | --- | --- | --- | --- | --- | --- | --- | --- | --- | --- | --- |
| O=C(O)c1cn(C2CC2)c2cc(N3CCNCC3)c(F)cc2c1=O [Ciprofloxacin, reference compound] | 2 µg/mL (≈ 6.04 µM) | 2 µg/mL (≈ 6.04 µM) | – | – | – | – | – | – | – | – | – |
| N.N.[Cl][Pt][Cl] [Cisplatin, reference compound] | – | – | 9.90 µg/mL | – | – | – | – | – | – | – | – |
| O=C(OCC(=O)n1[nH]c(=O)c2ccccc2c1=O)c1ccc(-n2cccc2)cc1 [Compound 4a, 2-(1,4-dioxo-3,4-dihydrophthalazin-2(1H)-yl)-2-oxoethyl 4-(1H-pyrrol-1-yl)benzoate] | 3.12 µg/mL (≈ 8.01 µM) | 12.5 µg/mL (≈ 32.1 µM) | – | 1.6 µg/mL (≈ 4.11 µM) | 43% | 23 µM | greater inhibition characteristics than trimethoprim | 315 ± 0.3 µg/mL (≈ 809 µM) | – | – | – |
| O=C(OCC(=O)n1[nH]c(=O)c2c(Cl)c(Cl)c(Cl)c(Cl)c2c1=O)c1ccc(-n2cccc2)cc1 [Compound 4b, 2-oxo-2-(5,6,7,8-tetrachloro-1,4-dioxo-3,4-dihydrophthalazin-2(1H)-yl)ethyl 4-(1H-pyrrol-1-yl)benzoate] | 0.8 µg/mL (≈ 1.52 µM) | 6.25 µg/mL (≈ 11.9 µM) | – | 1.6 µg/mL (≈ 3.04 µM) | 29% | 25 µM | greater inhibition characteristics than trimethoprim | 319 ± 0.4 µg/mL (≈ 605 µM) | – | – | – |
| O=C(OCC(=O)n1[nH]c(=O)c2c(Br)c(Br)c(Br)c(Br)c2c1=O)c1ccc(-n2cccc2)cc1 [Compound 4c, 2-oxo-2-(5,6,7,8-tetrabromo-1,4-dioxo-3,4-dihydrophthalazin-2(1H)-yl)ethyl 4-(1H-pyrrol-1-yl)benzoate] | 0.8 µg/mL (≈ 1.13 µM) | 6.25 µg/mL (≈ 8.87 µM) | – | 1.6 µg/mL (≈ 2.27 µM) | 51% | 21 µM | greater inhibition characteristics than trimethoprim | 287 ± 0.7 µg/mL (≈ 407 µM) | – | – | – |
| O=C1CCC(=O)N(C(=O)COC(=O)c2ccc(-n3cccc3)cc2)N1 [Compound 4d, 2-(3,6-dioxotetrahydropyridazin-1(2H)-yl)-2-oxoethyl 4-(1H-pyrrol-1-yl)benzoate] | 1.6 µg/mL (≈ 4.69 µM) | 6.25 µg/mL (≈ 18.3 µM) | – | 1.6 µg/mL (≈ 4.69 µM) | – | 31 µM | greater inhibition characteristics than trimethoprim | – | – | – | – |
| O=C(OCC(=O)n1[nH]c(=O)ccc1=O)c1ccc(-n2cccc2)cc1 [Compound 4e, 2-(3,6-dioxo-2,3-dihydropyridazin-1(6H)-yl)-2-oxoethyl 4-(1H-pyrrol-1-yl)benzoate] | 1.6 µg/mL (≈ 4.72 µM) | 6.25 µg/mL (≈ 18.4 µM) | – | 1.6 µg/mL (≈ 4.72 µM) | – | 32 µM | greater inhibition characteristics than trimethoprim | – | – | – | – |
| Cc1cc(=O)n(C(=O)COC(=O)c2ccc(-n3cccc3)cc2)[nH]c1=O [Compound 4f, 2-(4-methyl-3,6-dioxo-2,3-dihydropyridazin-1(6H)-yl)-2-oxoethyl 4-(1H-pyrrol-1-yl)benzoate] | 0.8 µg/mL (≈ 2.26 µM) | 3.12 µg/mL (≈ 8.83 µM) | – | 1.6 µg/mL (≈ 4.53 µM) | 23% | 35 µM | greater inhibition characteristics than trimethoprim | 258 ± 0.1 µg/mL (≈ 730 µM) | – | – | – |
| C=C1CC(=O)N(C(=O)COC(=O)c2ccc(-n3cccc3)cc2)NC1=O [Compound 4g, 2-(4-methylene-3,6-dioxotetrahydropyridazin-1(2H)-yl)-2-oxoethyl 4-(1H-pyrrol-1-yl)benzoate] | 0.8 µg/mL (≈ 2.26 µM) | 3.12 µg/mL (≈ 8.83 µM) | – | 1.6 µg/mL (≈ 4.53 µM) | – | 56 µM | moderate inhibition | – | – | – | – |
| CC(=NNC(=O)COC(=O)c1ccc(-n2cccc2)cc1)c1ccccc1 [Compound 5a, 2-oxo-2-(2-(1-phenylethylidene)hydrazinyl)ethyl 4-(1H-pyrrol-1-yl)benzoate] | 1.6 µg/mL (≈ 4.43 µM) | 12.5 µg/mL (≈ 34.6 µM) | – | 1.6 µg/mL (≈ 4.43 µM) | 26% | 95 µM | – | 225 ± 0.3 µg/mL (≈ 623 µM) | – | – | – |
| C/C(=N\NC(=O)COC(=O)c1ccc(-n2cccc2)cc1)c1ccc(Br)cc1 [Compound 5b, 2-(2-(1-(4-bromophenyl)ethylidene) hydrazineyl)-2-oxoethyl-4-(1H-pyrrol-1-yl) benzoate] | 0.4 to 0.8 µg/mL (≈ 0.908 to 1.82 µM) | 1.6 µg/mL (≈ 3.63 µM) | – | 0.8 µg/mL (≈ 1.82 µM) | 22% | 23 µM | greater inhibition characteristics than trimethoprim | 266 ± 0.3 µg/mL (≈ 604 µM) | 0.8 µg/mL | 0.4 µg/mL | – |
| CC(=NNC(=O)COC(=O)c1ccc(-n2cccc2)cc1)c1ccc(Cl)cc1 [Compound 5c, 2-(2-(1-(4-chlorophenyl)ethylidene)hydrazinyl)-2-oxoethyl 4-(1H-pyrrol-1-yl)benzoate] | 1.6 µg/mL (≈ 4.04 µM) | 6.25 µg/mL (≈ 15.8 µM) | – | 1.6 µg/mL (≈ 4.04 µM) | – | 100 µM | – | – | – | – | – |
| C/C(=N\NC(=O)COC(=O)c1ccc(-n2cccc2)cc1)c1ccc([N+](=O)[O-])cc1 [Compound 5d, 2-(2-(1-(4-nitrophenyl)ethylidene) hydrazineyl) -2-oxoethyl-4-(1H-pyrrol-1-yl) benzoate] | 1.6 µg/mL (≈ 3.94 µM) | 6.25 µg/mL (≈ 15.4 µM) | – | 1.6 µg/mL (≈ 3.94 µM) | – | 121 µM | – | – | – | – | – |
| CC(=NNC(=O)COC(=O)c1ccc(-n2cccc2)cc1)c1ccc(C)cc1 [Compound 5e, 2-oxo-2-(2-(1-(p-tolyl)ethylidene)hydrazinyl)ethyl 4-(1H-pyrrol-1-yl)benzoate] | 3.12 µg/mL (≈ 8.31 µM) | 12.5 µg/mL (≈ 33.3 µM) | – | 1.6 µg/mL (≈ 4.26 µM) | – | 118 µM | – | – | – | – | – |
| COc1cccc(C(C)=NNC(=O)COC(=O)c2ccc(-n3cccc3)cc2)c1 [Compound 5h, 2-(2-(1-(3-methoxyphenyl)ethylidene)hydrazinyl)-2-oxoethyl 4-(1H-pyrrol-1-yl)benzoate] | 3.12 µg/mL (≈ 7.97 µM) | 12.5 µg/mL (≈ 31.9 µM) | – | 1.6 µg/mL (≈ 4.09 µM) | – | 124 µM | – | – | – | – | – |
| COc1ccc(C(C)=NNC(=O)COC(=O)c2ccc(-n3cccc3)cc2)cc1 [Compound 5i, 2-(2-(1-(4-methoxyphenyl)ethylidene)hydrazinyl)-2-oxoethyl 4-(1H-pyrrol-1-yl)benzoate] | 1.6 µg/mL (≈ 4.09 µM) | 6.25 µg/mL (≈ 16 µM) | – | 3.12 µg/mL (≈ 7.97 µM) | – | 129 µM | – | – | – | – | – |
| CC(=NNC(=O)COC(=O)c1ccc(-n2cccc2)cc1)c1ccc(Br)cc1Br [Compound 5m, 2-(2-(1-(2,4-dibromophenyl)ethylidene)hydrazinyl)-2-oxoethyl 4-(1H-pyrrol-1-yl)benzoate] | 0.4 to 0.8 µg/mL (≈ 0.77 to 1.54 µM) | 6.25 µg/mL (≈ 12 µM) | – | 3.12 µg/mL (≈ 6.01 µM) | – | 90 µM | – | – | – | 0.8 µg/mL | – |
| CC(=NNC(=O)COC(=O)c1ccc(-n2cccc2)cc1)c1ccc(Cl)cc1Cl [Compound 5n, 2-(2-(1-(2,4-dichlorophenyl)ethylidene)hydrazinyl)-2-oxoethyl 4-(1H-pyrrol-1-yl)benzoate] | 0.4 to 0.8 µg/mL (≈ 0.93 to 1.86 µM) | 6.25 µg/mL (≈ 14.5 µM) | – | 3.12 µg/mL (≈ 7.25 µM) | – | 93 µM | – | – | – | 0.8 µg/mL | – |
| CC(=NNC(=O)COC(=O)c1ccc(-n2cccc2)cc1)c1ccc(N)cc1 [Compound 5o, 2-(2-(1-(4-aminophenyl)ethylidene)hydrazinyl)-2-oxoethyl 4-(1H-pyrrol-1-yl)benzoate] | 3.12 µg/mL (≈ 8.29 µM) | 12.5 µg/mL (≈ 33.2 µM) | – | 3.12 µg/mL (≈ 8.29 µM) | – | 90 µM | – | – | – | – | – |
| CC(=NNC(=O)COC(=O)c1ccc(-n2cccc2)cc1)c1cccc(O)c1 [Compound 5p, 2-(2-(1-(3-hydroxyphenyl)ethylidene)hydrazinyl)-2-oxoethyl 4-(1H-pyrrol-1-yl)benzoate] | 3.12 µg/mL (≈ 8.27 µM) | 12.5 µg/mL (≈ 33.1 µM) | – | 3.12 µg/mL (≈ 8.27 µM) | – | 115 µM | – | – | – | – | – |
| O=C(COC(=O)c1ccc(-n2cccc2)cc1)NN=Cc1ccccc1Br [Compound 6b, 2-(2-(2-bromobenzylidene)hydrazinyl)-2-oxoethyl 4-(1H-pyrrol-1-yl)benzoate] | 1.6 µg/mL (≈ 3.75 µM) | 3.12 µg/mL (≈ 7.32 µM) | – | 1.6 µg/mL (≈ 3.75 µM) | – | 130 µM | – | – | – | – | no inhibition |
| COc1ccc(C=NNC(=O)COC(=O)c2ccc(-n3cccc3)cc2)cc1 [Compound 6e, 2-(2-(4-methoxybenzylidene)hydrazinyl)-2-oxoethyl 4-(1H-pyrrol-1-yl)benzoate] | 1.6 µg/mL (≈ 4.24 µM) | 6.25 µg/mL (≈ 16.6 µM) | – | 1.6 µg/mL (≈ 4.24 µM) | – | 69 µM | moderate inhibition | – | – | – | no inhibition |
| NNC(=O)c1ccncc1 [Isoniazid, reference compound] | – | – | – | 1.6 µg/mL (≈ 11.7 µM) | > 99% | – | – | > 450 µg/mL | – | – | – |
| NC(=O)c1cnccn1 [Pyrazinamide, reference compound] | – | – | – | 3.12 µg/mL (≈ 25.3 µM) | – | – | – | – | – | – | – |
| [H]/N=C(/N)N[C@H]1[C@H](O)[C@@H](O)[C@H](O[C@@H]2O[C@@H](C)[C@](O)(C=O)[C@H]2O[C@@H]2O[C@@H](CO)[C@H](O)[C@@H](O)[C@@H]2NC)[C@@H](N/C(N)=N\[H])[C@@H]1O [Streptomycin, reference compound] | – | 2 µg/mL (≈ 3.44 µM) | – | 0.8 µg/mL (≈ 1.38 µM) | – | – | – | – | – | – | – |
